Data reported in US20240246964A1 (Arbutus Biopharma Corporation, priority 2021, published 2024).

Legend:
human PD-L1 = human PD-L1 (Homo sapiens (Human), UniProt Q9NZQ7); test: T cell activation luciferase reporter cell culture system (T Cell Activation Assay); format: cell-based; conditions: luciferase reporter assay; PD-L1 aAPC/CHO-K1 cells with PD-1 effector Jurkat T cells
[1] = target: PD-L1 His protein / PD-1 Fc protein (Homo sapiens (Human), UniProt Q9NZQ7); test: HTRF Assay (PD-1/PD-L1 interaction); format: binding; conditions: PD-L1 His 6 nM, PD-1 Fc 6 nM
PD-L1 His protein / PD-1 Fc protein, sequence (Q9NZQ7 19-238): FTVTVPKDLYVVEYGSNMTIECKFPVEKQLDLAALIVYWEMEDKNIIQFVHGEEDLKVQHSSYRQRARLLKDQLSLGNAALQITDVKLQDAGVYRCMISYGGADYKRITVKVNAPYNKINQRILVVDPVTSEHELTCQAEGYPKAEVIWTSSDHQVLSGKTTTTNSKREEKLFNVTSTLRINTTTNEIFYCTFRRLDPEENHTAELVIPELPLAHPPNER

human PD-L1, sequence (Q9NZQ7 19-290): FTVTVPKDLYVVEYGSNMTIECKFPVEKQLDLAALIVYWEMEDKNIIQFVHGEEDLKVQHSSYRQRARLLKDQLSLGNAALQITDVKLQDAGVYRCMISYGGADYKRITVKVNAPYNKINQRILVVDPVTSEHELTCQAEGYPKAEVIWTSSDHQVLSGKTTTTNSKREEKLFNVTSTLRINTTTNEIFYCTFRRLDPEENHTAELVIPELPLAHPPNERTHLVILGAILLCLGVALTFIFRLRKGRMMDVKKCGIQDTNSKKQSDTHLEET

SMILES | EC50 (human PD-L1) | IC50 [1]
COc1cc(-c2nccc(-c3cccc(NC(=O)c4ccc(CNCCO)cn4)c3Cl)c2Cl)ccc1CNCCO [Example 676, N-(2-Chloro-3-(3-chloro-2-(4-(((2-hydroxyethyl)amino)methyl)-3-methoxyphenyl)pyridin-4-yl)phenyl)-5-(((2-hydroxyethyl)amino)methyl)picolinamide] | 37.3 nM | 0.1 nM
COc1cc(-c2nccc(-c3cccc(NC(=O)c4ccc(CN5CC6(C5)CN(C(C)=O)C6)cn4)c3Cl)c2Cl)ccc1CN1CC2(C1)CN(C(C)=O)C2 [Example 677, 5-((6-Acetyl-2,6-diazaspiro[3.3]heptan-2-yl)methyl)-N-(3-(2-(4-((6-acetyl-2,6-diazaspiro[3.3]heptan-2-yl)methyl)-3-methoxyphenyl)-3-chloropyridin-4-yl)-2-chlorophenyl)picolinamide] | 1210 nM | 0.04 nM
COc1cc(-c2nccc(-c3cccc(NC(=O)c4ccc(CNC[C@H](C)O)cn4)c3Cl)c2Cl)ccc1CNC[C@H](C)O [Example 678, N-(2-Chloro-3-(3-chloro-2-(4-((((S)-2-hydroxypropyl)amino)methyl)-3-methoxyphenyl)pyridin-4-yl)phenyl)-5-((((S)-2-hydroxypropyl)amino)methyl)picolinamide] | 37 nM | 0.02 nM
COCCC(=O)N1CC2(CN(Cc3ccc(-c4nccc(-c5cccc(-c6ccc(CN7CC8(C7)CN(C(=O)CCOC)C8)c(OC)n6)c5Cl)c4Cl)cc3OC)C2)C1 [Example 679, 1-(6-((6-(2-Chloro-3-(3-chloro-2-(3-methoxy-4-((6-(3-methoxypropanoyl)-2,6-diazaspiro[3.3]heptan-2-yl)methyl)phenyl)pyridin-4-yl)phenyl)-2-methoxypyridin-3-yl)methyl)-2,6-diazaspiro[3.3]heptan-2-yl)-3-methoxypropan-1-one] | 30.5 nM | 0.16 nM
COc1nc(-c2cccc(-c3ccnc(-c4ccc(CN5CC6(CNC(=O)C6)C5)c(OC(F)F)c4)c3Cl)c2Cl)ccc1CNC1CCOCC1 [Example 683, 2-(4-(3-Chloro-4-(2-chloro-3-(6-methoxy-5-(((tetrahydro-2H-pyran-4-yl)amino)methyl)pyridin-2-yl)phenyl)pyridin-2-yl)-2-(difluoromethoxy)benzyl)-2,6-diazaspiro[3.4]octan-7-one] | 25.9 nM | 0.29 nM
COc1nc(-c2cccc(-c3ccnc(-c4ccc(CN5CC6(CNC(=O)C6)C5)c(OC(F)F)c4)c3Cl)c2Cl)ccc1CNC1CCN(C(C)=O)CC1 [Example 684, 2-(4-(4-(3-(5-(((1-Acetylpiperidin-4-yl)amino)methyl)-6-methoxypyridin-2-yl)-2-chlorophenyl)-3-chloropyridin-2-yl)-2-(difluoromethoxy)benzyl)-2,6-diazaspiro[3.4]octan-7-one] | 34.9 nM | 1.8 nM
COc1nc(-c2cccc(-c3ccnc(-c4ccc(CNC5CCOCC5)c(OC(F)F)c4)c3Cl)c2Cl)ccc1CN1CC2(CNC(=O)C2)C1 [Example 685, 2-((6-(2-Chloro-3-(3-chloro-2-(3-(difluoromethoxy)-4-(((tetrahydro-2H-pyran-4-yl)amino)methyl)phenyl)pyridin-4-yl)phenyl)-2-methoxypyridin-3-yl)methyl)-2,6-diazaspiro[3.4]octan-7-one] | 51.7 nM | 4.22 nM
COc1nc(-c2ccnc(-c3cccc4c3CC[C@@H]4Oc3nc(OC)c(CNC[C@@H]4CCC(=O)N4)cc3C(F)(F)F)c2Cl)ccc1CNC1CCOCC1 [Example 686, (S)-5-((((6-(((S)-4-(3′-chloro-6-methoxy-5-(((tetrahydro-2H-pyran-4-yl)amino)methyl)-[2,4′-bipyridin]-2′-yl)-2,3-dihydro-1H-inden-1-yl)oxy)-2-methoxy-5-(trifluoromethyl)pyridin-3-yl)methyl)amino)methyl)pyrrolidin-2-one] | 11.1 nM | 14.8 nM
COCC(=O)N1CC2(CN(Cc3ccc(-c4cccc(-c5ccnc(-c6ccc(CN7CC8(CNC(=O)C8)C7)c(OC)c6)c5Cl)c4Cl)nc3OC)C2)C1 [Example 687, 2-(4-(3-Chloro-4-(2-chloro-3-(6-methoxy-5-((6-(2-methoxyacetyl)-2,6-diazaspiro[3.3]heptan-2-yl)methyl)pyridin-2-yl)phenyl)pyridin-2-yl)-2-methoxybenzyl)-2,6-diazaspiro[3.4]octan-7-one] | 26.3 nM | 0.08 nM
COc1nc(-c2cccc(-c3ccnc(-c4ccc(CN5CC6(CNC(=O)C6)C5)c(OC(F)F)c4)c3Cl)c2Cl)ccc1CN1CC2(C1)CN(C(C)=O)C2 [Example 688, 2-(4-(4-(3-(5-((6-Acetyl-2,6-diazaspiro[3.3]heptan-2-yl)methyl)-6-methoxypyridin-2-yl)-2-chlorophenyl)-3-chloropyridin-2-yl)-2-(difluoromethoxy)benzyl)-2,6-diazaspiro[3.4]octan-7-one] | 17 nM | 1.46 nM
COc1nc(-c2cccc(-c3ccnc(-c4ccc(CNC5CCOCC5)c(OC(F)F)c4)c3Cl)c2Cl)ccc1CN1CC2(C1)CN(C(C)=O)C2 [Example 689, 1-(6-((6-(2-Chloro-3-(3-chloro-2-(3-(difluoromethoxy)-4-(((tetrahydro-2H-pyran-4-yl)amino)methyl)phenyl)pyridin-4-yl)phenyl)-2-methoxypyridin-3-yl)methyl)-2,6-diazaspiro[3.3]heptan-2-yl)ethan-1-one] | 37.4 nM | 3.33 nM
COc1cc(-c2nccc(-c3cccc(-c4ccc(CN5CCC(O)CC5)c(OC)n4)c3Cl)c2Cl)ccc1CN1CC2(CCN(C(C)=O)C2)C1 [Example 693, 1-(2-(4-(3-Chloro-4-(2-chloro-3-(5-((4-hydroxypiperidin-1-yl)methyl)-6-methoxypyridin-2-yl)phenyl)pyridin-2-yl)-2-methoxybenzyl)-2,6-diazaspiro[3.4]octan-6-yl)ethan-1-one] | 26.1 nM | 0.71 nM
COc1nc(-c2cccc(-c3ccnc(-c4cc5c(OC)nc(CN6CC(C)(O)C6)nn5c4)c3Cl)c2Cl)ccc1CNC[C@@H]1CCC(=O)N1 [Example 697, (S)-5-((((6-(2-Chloro-3-(3-chloro-2-(2-((3-hydroxy-3-methylazetidin-1-yl)methyl)-4-methoxypyrrolo[2,1-f][1,2,4]triazin-6-yl)pyridin-4-yl)phenyl)-2-methoxypyridin-3-yl)methyl)amino)methyl)pyrrolidin-2-one] | 120 nM | 6.26 nM
COc1nc(-c2cccc(-c3ccnc(-c4cc(OC)c5nc(CN6CC7(COC7)C6)nn5c4)c3Cl)c2Cl)ccc1CNC1CCN(C(C)=O)CC1 [Example 698, 1-(4-(((6-(3-(2-(2-((2-Oxa-6-azaspiro[3.3]heptan-6-yl)methyl)-8-methoxy-[1,2,4]triazolo[1,5-a]pyridin-6-yl)-3-chloropyridin-4-yl)-2-chlorophenyl)-2-methoxypyridin-3-yl)methyl)amino)piperidin-1-yl)ethan-1-one] | 261 nM | 0.14 nM
COc1cc(-c2nccc(-c3cccc(NC(=O)c4ccc(CNCCO)cn4)c3C)c2Cl)ccc1CNC1CCOCC1 [Example 703, N-(3-(3-Chloro-2-(3-methoxy-4-(((tetrahydro-2H-pyran-4-yl)amino)methyl)phenyl)pyridin-4-yl)-2-methylphenyl)-5-(((2-hydroxyethyl)amino)methyl)picolinamide] | 146 nM | 0.14 nM
